Our source for the IC50 values is patent US20240148821A1, “PHARMACEUTICAL USE OF CYCLIC PEPTIDE COMPOUND” (CHUGAI SEIYAKU KABUSHIKI KAISHA, priority 2021, published 2024).

Numbered stars: 1 amine (or outer) side, 2 acyl side, 3 side chain; on linkers, the order of the positions; unused ones are H or OH. Bridge positions count the residues as written; N and C are the ends. Square brackets hold non-standard residues; d marks the D form. Peptide text beside a SMILES is read from it. * marks the point of attachment. hPhe(3,5-F2-4-CF3) = N[C@@H](CCc1cc(F)c(C(F)(F)F)c(F)c1)C(=O)O; hPhe(3-Cl-4-CF3) = N[C@@H](CCc1ccc(C(F)(F)F)c(Cl)c1)C(=O)O; hPhe(3-F,4-CF3) = N[C@@H](CCc1ccc(C(F)(F)F)c(F)c1)C(=O)O; NMePhe(4-CF3) = CN[C@@H](Cc1ccc(C(F)(F)F)cc1)C(=O)O; NMePhe(4-Me) = CN[C@@H](Cc1ccc(C)cc1)C(=O)O; X135 = O=C([C@H](Cc1cc(F)ccc1F)N[*:1])[*:2]; NMePhe(2-Cl) = CN[C@@H](Cc1ccccc1Cl)C(=O)O; NMeGly(cPent) = CN[C@H](C(=O)O)C1CCCC1; Pro(4,4-F2) = O=C(O)[C@@H]1CC(F)(F)CN1; NMeY = CN[C@@H](Cc1ccc(O)cc1)C(=O)O; NMeCha = CN[C@@H](CC1CCCCC1)C(=O)O; NMehLeu = CN[C@@H](CCC(C)C)C(=O)O; NMeChg = CN[C@H](C(=O)O)C1CCCCC1; NMeI = CC[C@H](C)[C@H](NC)C(=O)O; NMeD = CN[C@@H](CC(=O)O)C(=O)O; NMeL = CN[C@@H](CC(C)C)C(=O)O; Chg = N[C@H](C(=O)O)C1CCCCC1; NMeNva = CCC[C@H](NC)C(=O)O; NMeV = CN[C@H](C(=O)O)C(C)C; d(β3hA) = C[C@@H](N)CC(=O)O; Azetidin(1-yl) = C1CN(*)C1; NMeAbu = CC[C@H](NC)C(=O)O; Morpholide = C1CN(*)CCO1; NMeA = CN[C@@H](C)C(=O)O; NMeAib = CNC(C)(C)C(=O)O; Nle = CCCC[C@H](N)C(=O)O; Piperidide = C1CCN(*)CC1; Pyrrolidide = C1CCN(*)C1; Ac5c = NC1(C(=O)O)CCCC1; Aze = O=C(O)[C@@H]1CCN1; Sar = CNCC(=O)O

In this experiment the test system is Human pancreatic cancer cell line AsPC-1 (G12D mutation Kras). The experiment in a line: AsPC-1 cell growth inhibition (AsPC-1 CGI). Type of experiment: cell-based. The conditions noted are these: read-out: AsPC-1 cell growth inhibition, 50% growth inhibitory concentration (IC50 value); 96 hours, CellTiter-Glo, values classified in ranges.
Protocol: Test compounds were serially dilated with dimethyl sulfoxide, and 200 nL was then dispensed to a U-bottom 96-well plate using Labcyte Echo. […] The cell suspension was dispensed to a. plate containing a test compound at 100 μL per well and incubated at 37° C. in a 5% carbon dioxide gas incubator. 96 hours later, 80 μL of CellTiter-Glo (Promega) was added to each well and fluorescence was measured.
For the compound `CC[C@H](C)[C@@H]1NC(=O)[C@H](CC(C)C)N(C)C(=O)C[C@@H](C(=O)N2CCOCC2)N(C)C(=O)[C@H](C2CCCCC2)N(C)C(=O)C2(CCCC2)NC(=O)[C@@H]2CC(F)(F)CN2C(=O)[C@H](CCc2ccc(C(F)(F)F)c(Cl)c2)NC(=O)CN(C)C(=O)[C@H](CC2CCCCC2)N(C)C(=O)CN(C)C(=O)CN(C)C1=O` [Compound 1194] ([NMeL]I[Sar][Sar][NMeCha][Sar][hPhe(3-Cl-4-CF3)][Pro(4,4-F2)][Ac5c][NMeChg][NMeD]-Morpholide; lactam N-11), the IC50 was not above 20 nM. `CC[C@H](C)[C@@H]1NC(=O)[C@H](CC(C)C)N(C)C(=O)C[C@@H](C(=O)N2CCC2)N(C)C(=O)[C@H](C2CCCC2)N(C)C(=O)C2(CCCC2)NC(=O)[C@@H]2CCCN2C(=O)[C@H](CCc2ccc(C(F)(F)F)c(Cl)c2)NC(=O)CN(C)C(=O)[C@H](CC2CCCCC2)N(C)C(=O)[C@@H]2CCN2C(=O)[C@H](C)N(C)C1=O` [Compound 515] ([NMeL]I[NMeA][Aze][NMeCha][Sar][hPhe(3-Cl-4-CF3)]P[Ac5c][NMeGly(cPent)][NMeD]-{Azetidin(1-yl)}; lactam N-11): the IC50 was not above 20 nM. Regarding `CC[C@H](C)[C@@H]1NC(=O)[C@H](C)N(C)C(=O)C[C@@H](C(=O)N2CCCCC2)N(C)C(=O)[C@H](C(C)C)N(C)C(=O)C2(CCCC2)NC(=O)[C@@H]2CCCN2C(=O)[C@H](CCc2ccc(C(F)(F)F)c(Cl)c2)NC(=O)CN(C)C(=O)[C@H](CC2CCCCC2)N(C)C(=O)[C@@H]2CCN2C(=O)[C@H](CCC(C)C)N(C)C1=O` [Compound 1595] ([NMeA]I[NMehLeu][Aze][NMeCha][Sar][hPhe(3-Cl-4-CF3)]P[Ac5c][NMeV][NMeD]-Piperidide; lactam N-11), the IC50 was more than 500 nM. Take `CC[C@H](C)[C@@H]1NC(=O)[C@H](CC(C)C)N(C)C(=O)C[C@@H](C(=O)N2CCCCC2)N(C)C(=O)[C@H]([C@@H](C)CC)N(C)C(=O)C2(CCCC2)NC(=O)[C@@H]2CCCN2C(=O)[C@H](CCc2ccc(C(F)(F)F)c(Cl)c2)NC(=O)CN(C)C(=O)[C@H](Cc2ccc(C)cc2)N(C)C(=O)CN(C)C(=O)CN(C)C1=O` [Compound 1649] ([NMeL]I[Sar][Sar][NMePhe(4-Me)][Sar][hPhe(3-Cl-4-CF3)]P[Ac5c][NMeI][NMeD]-Piperidide; lactam N-11): the IC50 was not above 20 nM. Take `CC[C@H](C)[C@@H]1NC(=O)[C@H](CC(C)C)N(C)C(=O)C[C@@H](C)NC(=O)[C@H](C(C)C)N(C)C(=O)C2(CCCC2)NC(=O)[C@@H]2CCCN2C(=O)[C@H](CCc2ccc(C(F)(F)F)c(Cl)c2)NC(=O)CN(C)C(=O)[C@H](Cc2ccccc2Cl)N(C)C(=O)CN(C)C(=O)CN(C)C1=O` [Compound 1591] (cyclo([Ac5c][NMeV][d(β3hA)][NMeL]I[Sar][Sar][NMePhe(2-Cl)][Sar][hPhe(3-Cl-4-CF3)]P)): the IC50 was more than 500 nM. On to `CCC[C@H]1C(=O)N[C@@H]([C@@H](C)CC)C(=O)N(C)CC(=O)N(C)CC(=O)N(C)[C@@H](CC2CCCCC2)C(=O)N(C)CC(=O)N[C@@H](CCc2cc(F)c(C(F)(F)F)c(F)c2)C(=O)N2CC(F)(F)C[C@H]2C(=O)NC2(CCCC2)C(=O)N(C)[C@@H](C2CCCCC2)C(=O)N(C)[C@H](C(=O)N2CCCC2)CC(=O)N1C` [Compound 1160] ([NMeNva]I[Sar][Sar][NMeCha][Sar][hPhe(3,5-F2-4-CF3)][Pro(4,4-F2)][Ac5c][NMeChg][NMeD]-Pyrrolidide; lactam N-11), for which the IC50 was not above 20 nM. For the compound `CCCC[C@@H]1NC(=O)[C@H](Cc2cc(F)ccc2F)NC(=O)CN(C)C(=O)[C@H](Cc2ccc(OC)cc2)N(C)C(=O)[C@@H]2CCN2C(=O)[C@H](C)N(C)C(=O)[C@H]([C@@H](C)CC)NC(=O)[C@H](CC)N(C)C(=O)C[C@@H](C(=O)N2CCCCC2)N(C)C(=O)[C@H](CC(C)C)NC(=O)C(C)(C)N(C)C1=O` [Compound 1268] ([NMeAbu]I[NMeA][Aze][NMeY](Me)[Sar][X135][Nle][NMeAib]L[NMeD]-Piperidide; lactam N-11), the IC50 is more than 500 nM. With `CC[C@H](C)[C@@H]1NC(=O)[C@H](CCC(C)C)N(C)C(=O)C[C@@H](C(=O)N2CCCC2)N(C)C(=O)[C@H]([C@@H](C)CC)N(C)C(=O)C2(CCCC2)NC(=O)[C@@H]2CCCN2C(=O)[C@H](CCc2ccc(C(F)(F)F)c(Cl)c2)NC(=O)CN(C)C(=O)[C@H](Cc2ccc(C(F)(F)F)cc2)N(C)C(=O)[C@@H]2CCN2C(=O)[C@H](C)N(C)C1=O` [Compound 1289] ([NMehLeu]I[NMeA][Aze][NMePhe(4-CF3)][Sar][hPhe(3-Cl-4-CF3)]P[Ac5c][NMeI][NMeD]-Pyrrolidide; lactam N-11), the IC50 was not above 20 nM. As for `CC(C)C[C@H]1C(=O)N[C@@H](C2CCCCC2)C(=O)N(C)CC(=O)N(C)CC(=O)N(C)[C@@H](CC2CCCCC2)C(=O)N(C)CC(=O)N[C@@H](CCc2ccc(C(F)(F)F)c(F)c2)C(=O)N2CCC[C@H]2C(=O)NC2(CCCC2)C(=O)N(C)[C@@H](CC(C)C)C(=O)N[C@H](C)CC(=O)N1C` [Compound 1527] (cyclo([Ac5c][NMeL][d(β3hA)][NMeL][Chg][Sar][Sar][NMeCha][Sar][hPhe(3-F,4-CF3)]P)), the IC50 was more than 500 nM.
